Values belong to the compound of their own block, whether it stands above or below them. Where a SMILES comes first, the peptide text is derived from it. Bridges are numbered along the chain shown (N, C = ends).
Legend:
[1] = target: T1, Peptidyl-prolyl cis-trans isomerase NIMA-interacting 1 (Homo sapiens, UniProt Q13526); experiment: Inhibition of Pin1 (unknown origin)
[2] = Growth inhibition of human […] cells; assay type: functional
[3] = target: T1, Peptidyl-prolyl cis-trans isomerase NIMA-interacting 1; experiment: Inhibition of Pin1 (unknown origin) using Suc-Ala-Glu-cis-Pro-Phe-pNA as substrate
[4] = target: T1, Peptidyl-prolyl cis-trans isomerase NIMA-interacting 1; experiment: Inhibition of GST-tagged Pin1 (unknown origin) using Suc-AEPF-pNA and WFYpSPR-pNA as substrate after 5 mins
[5] = target: T1, Peptidyl-prolyl cis-trans isomerase NIMA-interacting 1; experiment: Inhibition of Pin1 in human MCF7 cells assessed as inhibition of etoposide-induced p53 transcription at 30 uM by luciferase reporter gene assay relative to control; assay type: cell-based
[6] = target: T1, Peptidyl-prolyl cis-trans isomerase NIMA-interacting 1; experiment: Inhibition of full length Pin1 (unknown origin) using WFY(pS)PR-pNA as substrate by spectrophotometric analysis
[7] = test system: MEF; experiment: Growth inhibition of MEF expressing Pin1; assay type: functional; conditions: Mus musculus
[8] = Growth inhibition of Pin1-deficient MEF; assay type: cell-based; conditions: mouse, Pin1-deficient MEF cells
[9] = target: T1, Peptidyl-prolyl cis-trans isomerase NIMA-interacting 1; experiment: Inhibition of Pin1 in human MCF7 cells assessed as inhibition of etoposide-induced p53 transcription at 10 uM by luciferase reporter gene assay relative to control; assay type: cell-based
[10] = target: T1, Peptidyl-prolyl cis-trans isomerase NIMA-interacting 1; experiment: Reversible inhibition of human Pin1
[11] = target: T1, Peptidyl-prolyl cis-trans isomerase NIMA-interacting 1; experiment: Inhibition of human Pin1
[12] = target: T1, Peptidyl-prolyl cis-trans isomerase NIMA-interacting 1; experiment: Binding affinity to GST-tagged Pin1 (unknown origin) by SPR spectroscopic analysis
[13] = target: T1, Peptidyl-prolyl cis-trans isomerase NIMA-interacting 1; experiment: Inhibition of Pin1 (unknown origin) using Suc-Ala-Glu-Pro-Phe-MCA as substrate after 120 secs by fluorescence microtiter plate reader analysis
[14] = target: Peptidyl-prolyl cis-trans isomerase NIMA-interacting 4 (Homo sapiens, UniProt Q9Y237); experiment: Inhibition of Par14 (unknown origin)
[15] = target: T1, Peptidyl-prolyl cis-trans isomerase NIMA-interacting 1; experiment: Competitive inhibition of Pin1 (unknown origin) by Lineweaver-Burk plot analysis

T1 sequence (Q13526 whole entry): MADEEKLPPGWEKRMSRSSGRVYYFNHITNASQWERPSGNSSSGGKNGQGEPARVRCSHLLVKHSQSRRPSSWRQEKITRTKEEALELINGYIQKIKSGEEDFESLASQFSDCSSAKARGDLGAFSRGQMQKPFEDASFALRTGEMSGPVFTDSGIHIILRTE
Peptidyl-prolyl cis-trans isomerase NIMA-interacting 4, sequence (Q9Y237 whole entry): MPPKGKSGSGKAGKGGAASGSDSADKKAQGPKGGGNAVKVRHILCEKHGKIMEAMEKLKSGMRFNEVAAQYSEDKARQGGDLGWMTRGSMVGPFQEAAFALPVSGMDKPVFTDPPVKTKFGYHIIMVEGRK

- IC50 [1]: 25 nM
Compound: Cc1oc(-c2ccc(CN)cc2)cc1C(=O)N[C@H](Cc1nc2ccccc2[nH]1)C(=O)O

- IC50 [3]: 1500 nM
Compound: CC(=O)N[C@@H](Cc1ccccc1)C(=O)N[C@@H](Cc1ccccc1)C(=O)N[C@H](/C=C1/CCC[C@H]1C(=O)N[C@@H](CCCNC(=N)N)C(N)=O)COP(=O)(O)O
- GI50 [2]: 8000 nM

- IC50 [4]: 500 nM
Compound: CC[C@H](C)[C@@H]1NC(=O)[C@H](CCC(=O)O)NC(=O)[C@H](C(C)C)NC(=O)[C@H](CCC(=O)O)NC(=O)[C@@H]2CCCN2C(=O)[C@H](Cc2ccc(O)cc2)NC(=O)[C@H](CCCN=C(N)N)NC(=O)[C@@H](N)CSSC[C@@H](C(=O)O)NC1=O [CYCLIC CRYPEVEIC] (H-CRYPEVEIC-OH; disulfide 1-9)

- inhibition [5]: 25%
Compound: COc1ccc(F)cc1C(=O)[C@@]1(C)CCc2ccccc21

Compound: O=C(O[C@@H]1Cc2c(O)cc(O)cc2O[C@@H]1c1cc(O)c(O)c(O)c1)c1cc(O)c(O)c(O)c1 [EPIGALOCATECHIN GALLATE]
- IC50 [6]: 20000 nM
- GI50 [7]: 7000 nM
- GI50 [8]: 14000 nM

- inhibition [9]: > 75%
- IC50 [1]: 5600 nM
Compound: COc1ccc(F)cc1C(=O)[C@]1(C)CCc2ccccc21

- IC50 [10]: 1000 nM
Compound: CC(=O)N[C@@H](C)C(=O)N[C@@H](C)C(=O)N[C@H](COP(=O)(O)O)C(=O)N1CCC[C@H]1C(=O)N[C@@H](CCCNC(=N)N)C(=O)Nc1ccc([N+](=O)[O-])cc1

- IC50 [11]: 890 nM
Compound: O=C(O)C[C@@H](C/C=C/c1cccc(F)c1)NC(=O)c1ccc2ccccc2c1

- IC50 [12]: 6100 nM
Compound: O=c1ccsn1-c1ccc(F)c(Cl)c1

- IC50 [11]: 4000 nM
Compound: O=C(N[C@H](Cc1cccc(F)c1)c1nn[nH]n1)c1ccc2ccccc2c1

- IC50 [13]: 1500 nM
- IC50 [14]: 1500 nM
Compound: CCOC(=O)CN1C(=O)c2ccc3c4c(ccc(c24)C1=O)C(=O)N(CC(=O)OCC)C3=O

- Ki [15]: 50 nM
- IC50 [1]: 4000 nM
Compound: S=C(SC(=S)N1CCCCC1)N1CCCCC1

- IC50 [11]: 600 nM
Compound: CCCCCc1ccc(CCC(=O)N[C@H](Cc2ccc(O)cc2)C(=O)N[C@@H](Cc2ccc(O)cc2)C(=O)N[C@@H](Cc2ccc3ccccc3c2)C(=O)O)cc1

- IC50 [10]: 200 nM
Compound: O=C(c1cc(-c2c(O)c([N+](=O)[O-])cc(F)c2[N+](=O)[O-])cc([N+](=O)[O-])c1O)C1CCc2ccccc21 (racemic)

- IC50 [1]: 6000 nM
Compound: O=C(N[C@@H](COP(=O)(O)O)CN1CCC[C@H]1C(=O)NCCc1c[nH]c2ccccc12)OCC1c2ccccc2-c2ccccc21

— ChEMBL document CHEMBL2407033, “Pin1 inhibitors: Pitfalls, progress and cellular pharmacology” (Bioorg Med Chem Lett, 2013)
